Results on eight compounds are retold here after PMC11904701, “Isolation and Characterization of Secondary Metabolites from Endemic and Edible Polygonum sivasicum with In Vitro Antioxidant and Cytotoxic Activities” (ACS Omega, 2025).

In brackets after ≈: the same amount, converted by molar mass.

Data set [1] has as its system HepG2 cells. Details: method as in doi:10.14233/ajchem.2013.15043. As to conditions: cited from earlier work.
The subject of data set [2] is Hep-3B cell line. Details: method as in PMID 28856938. As to conditions: data not included in the cited paper; cited from earlier work.
For data set [3], the system named is U87 cell line. Also on record: method as in PMID 28856938. The settings on record: data not included in the cited paper; cited from earlier work.
The test system of data set [4] is U118 cell line. Details: method as in PMID 28856938. The settings on record: data not included in the cited paper; cited from earlier work.
Data set [5] concerns MCF-7 cell line. Details: method as in PMID 28856938. The settings on record: data not included in the cited paper; cited from earlier work.
For data set [6], the system named is V79–4 cells. Also on record: method as in PMID 18550394. As to conditions: cited from earlier work.
Data set [7] has as its system A549 (human lung carcinoma epithelial cells). The data set is described as follows: MTT cell viability assay, A549. As to conditions: for IC50: Homo sapiens, A549, 24 h, read-out: IC50, 24 h, A549; for selectivity index A549: versus CCD-1079Sk, 24 h. (In general: Formazan colour is commonly taken as a measure of viable cells.)
For data set [8], the system named is A549 cell line. Details: method as in PMID 28856938. The settings on record: data not included in the cited paper; cited from earlier work.
Data set [9] relates to CCD-1079Sk (human normal skin fibroblast epithelial cells). The experiment in a line: MTT cell viability assay, CCD-1079Sk. The settings on record: 24 h, mean ± SD (n = 3). The format is cell-based. The method, then: (§1) The A549 (human lung carcinoma epithelial cells, ATCC, CCL-185), MCF-7 (human breast cancer cells, ATCC, HTB-22), and CCD-1079Sk (human normal skin fibroblast epithelial cells, ATCC, CRL-2097) cell lines were initially seeded into culture flasks and grown in DMEM supplemented with 10% FBS (Sigma-Aldrich, St Louis, MO), 1% penicillin/streptomycin (Thermo Fisher Scientific, Carlsbad, CA). The cell lines were maintained in a humidified atmosphere of 5% CO2 at a temperature of 37 °C. The culture medium was changed every two days until the cells reached 80% confluence.
(§2) 3-(4,5-dimethyl-2-thiazolyl)-2,5-diphenyl-2H-tetrazolium bromide (MTT) was used to assess the cytotoxicity of hyperoside, annphenone, daucosterol, and P. sivasicum methanol extract. Cells were grown in 96-well plates at a density of 5 × 10^3 cells per well. In total, 70 to 80% of confluent cells (after 24 h) were treated with different concentrations of compounds (prepared in a medium containing 1% DMSO) in the growth medium for 24 h. At the end of the incubation periods, MTT solution was added to the wells to give a final concentration of 0.5 mg/mL. The cells were then incubated at 37 °C for a further 3.5 h. To solubilize the formazan crystals, 100 μL of DMSO was added to each well. The optical density was read at 570 nm by using an ELISA microplate reader and directly correlated with the number of viable cells. For each concentration, the data for which the measurement was repeated at least three times were compared. The relative % cell viability and the IC50 value were determined by plotting the graph as a function of concentration. Untreated cells were considered as control, and medium without cells was considered as background control. To determine the cytotoxic effect of compounds on cell viability, cells that were not treated with compounds were considered 100% viable, and cell viability was calculated according to the following formula: % Cell Viability = Sample/Control × 100.
(§3) All data on bioactivity tests were averages of triplicate analyses. Activity assays were carried out at six concentrations, and the results are given as the IC50 values. The data were analyzed using One-way ANOVA followed by Tukey’s post hoc test. p < 0.05, p < 0.001 and p < 0.0001 were considered statistically significant. Data were recorded as mean ± SEM (standard error of the mean). Significant differences between means were determined by the one-way ANOVA, and p values < 0.05 were regarded as significant. IBM SPSS statistical software (Version: 28.0.0.0 (190)) and GraphPad Prism 10.2 were used for statistical analysis.

Data set [10] deals with MCF-7 (human breast cancer cells). The experiment in a line: MTT cell viability assay, MCF-7. The format is cell-based. As to conditions: 24 h; for IC50: Homo sapiens, MCF7, MTT, mean ± SD (n = 3); for selectivity index MCF-7: versus CCD-1079Sk. The method, then:
as §1, §2, §3

Details of data set [11]: method as in PMID 28856938. The settings on record: annphenone isolated from a Euphorbia species; cited from earlier work.
Data set [12] is described as follows: ABTS cation radical assay. The format is biochemical. As to conditions: mean ± SEM of three parallel measurements. The procedure: (§4) All data on bioactivity tests were averages of triplicate analyses. Activity assays were carried out at six concentrations, and the results are given as the IC50 values. The data were analyzed using One-way ANOVA followed by Tukey’s post hoc test. p < 0.05, p < 0.001 and p < 0.0001 were considered statistically significant. Data were recorded as mean ± SEM (standard error of the mean). […] IBM SPSS statistical software (Version: 28.0.0.0 (190)) and GraphPad Prism 10.2 were used for statistical analysis.

A short description of data set [13]: β-carotene linoleic acid bleaching assay. The format is biochemical. The settings on record: mean ± SEM of three parallel measurements. The procedure: as §4
A short description of data set [14]: CUPRAC (Cupric Reducing Antioxidant Capacity) method. The format is biochemical. The settings on record: A0.5 values, mean ± SEM of three parallel measurements. The method, then:
as §4

Data set [15] in a line: DPPH free radical scavenging assay. It counts as biochemical. As to conditions: mean ± SEM of three parallel measurements. The method, then:
as §4

Data set [16] relates to MCF-7. Also on record: method as in PMID 30160115. As to conditions: after 24 h; cited from earlier work.
The subject of data set [17] is MDA-MB-231. Also on record: method as in PMID 30160115. As to conditions: after 24 h; cited from earlier work.
Data set [18] deals with breast cancer tumor. Details: method as in PMID 30160115. The settings on record: mice, dose-dependent; cited from earlier work.

`O=c1[nH]cc(F)c(=O)[nH]1` [5-fluorouracil, reference compound]: the “antiproliferative IC50 on HepG2 cells” value in data set [1] was 0.33 µg/mL.

By IC50 is commonly meant the concentration that gives 50% inhibition. As to `COc1cc(O[C@@H]2O[C@H](CO)[C@@H](O)[C@H](O)[C@H]2O)cc(O)c1C(C)=O` [Annphenone, 2,4-dihydroxy-6-methoxy-acetophenone 4-O-β-D-glucopyranoside], in data set [2], the “cytotoxicity against Hep-3B” value was “no cytotoxicity”. Moreover, in data set [3], the “cytotoxicity against U87” value is “no cytotoxicity”. Further, the “cytotoxicity against U118” value in data set [4] was “no cytotoxicity”. For the same compound, in [5], the “cytotoxicity against MCF-7” value is on record as “no cytotoxicity”. For the same compound, the “cytoprotective effect against H2O2-induced apoptosis” value in data set [6] was “confirmed”. Also, in data set [7], the IC50 came to 250 ± 10 µg/mL (≈ 726 µM) and the “selectivity index A549” value is reported as 1.20. For the same compound, in [8], the “cytotoxicity against A549” value was “no cytotoxicity”. Besides, the “antiproliferative IC50 on HepG2 cells” value in data set [1] was 2.0 µg/mL. The same compound registered an IC50 in [9] of 300 ± 50 µg/mL (≈ 871 µM). For the same compound, in [10], the IC50 was 360 ± 20 µg/mL (≈ 1050 µM) and the “selectivity index MCF-7” value was found to be 0.83. For the same compound, the “DPPH scavenging IC50” value in [11] was 23.23 ± 1.8 µg/mL.

Consider `COc1ccc(O)c(C(C)(C)C)c1` [BHA, Butylated hydroxy anisol], for which the “ABTS IC50” value in data set [12] turned out to be 7.23 ± 0.01 µg/mL. Further, in data set [13], the “β-carotene IC50” value worked out at 1.34 ± 0.04 µg/mL. For the same compound, in [14], the “CUPRAC IC50 (A0.5: concentration of 0.500 Absorbance value)” value (“CUPRAC IC50” below) was determined as 24.49 ± 0.19 µg/mL. Besides, the “DPPH IC50” value in data set [15] stood at 28.59 ± 0.06 µg/mL.

With `Cc1cc(C(C)(C)C)c(O)c(C(C)(C)C)c1` [BHT, Butylated hydroxy toluene], the “ABTS IC50” value in data set [12] was found to be 21.67 ± 0.87 µg/mL. In addition, the “CUPRAC IC50” value in [14] worked out at 26.85 ± 1.50 µg/mL.

On to `CC[C@H](CC[C@@H](C)[C@H]1CC[C@H]2[C@@H]3CC=C4C[C@@H](O[C@@H]5O[C@H](CO)[C@@H](O)[C@H](O)[C@H]5O)CC[C@]4(C)[C@H]3CC[C@]12C)C(C)C` [Daucosterol, β-sitosterol-3-O-β-glucopyranoside], for which the IC50 in data set [16] was 30.8 mM; in data set [17], 49.8 mM; in data set [7], 180 ± 20 µg/mL (≈ 312 µM); in data set [9], 260 ± 30 µg/mL (≈ 451 µM); in [10], 580 ± 20 µg/mL (≈ 1010 µM). In [18], the tumor volume result is recorded as “decrease”. In addition, in data set [18], the tumor weight entry is “decrease”. Besides, the “selectivity index A549” value in [7] stood at 1.44. For the same compound, in data set [10], the “selectivity index MCF-7” value stood at 0.44.

Turning to `COc1cccc2c1C(=O)c1c(O)c3c(c(O)c1C2=O)C[C@@](O)(C(=O)CO)C[C@@H]3O[C@H]1C[C@H](N)[C@H](O)[C@H](C)O1` [Doxorubicin, reference compound], in data set [7], the IC50 is 10 ± 10 µg/mL (≈ 18.4 µM) and the “selectivity index A549” value came to 28.0. In [9], this compound showed a half-maximal inhibitory concentration (IC50) of 280 ± 10 µg/mL (≈ 515 µM). In addition, in data set [10], the IC50 was found to be 40 ± 10 µg/mL (≈ 73.6 µM) and the “selectivity index MCF-7” value was 7.0.

`O=c1c(O[C@@H]2O[C@H](CO)[C@H](O)[C@H](O)[C@H]2O)c(-c2ccc(O)c(O)c2)oc2cc(O)cc(O)c12` [Hyperoside, Quercetin-3-O-β-galactopyranoside]: the figures for the IC50 in data set [7], in [9] and in data set [10] were 600 ± 70 µg/mL (≈ 1290 µM), 250 ± 40 µg/mL (≈ 538 µM) and 370 ± 20 µg/mL (≈ 797 µM), respectively. The “selectivity index A549” value in data set [7] is 0.41. Also, the “selectivity index MCF-7” value in data set [10] is given as 0.67.

For `Cc1c(C)c2c(c(C)c1O)CC[C@@](C)(CCC[C@H](C)CCC[C@H](C)CCCC(C)C)O2` [α-Toc, Tocopherol], the “ABTS IC50” value in data set [12] stood at 27.70 ± 0.28 µg/mL. In addition, in data set [14], the “CUPRAC IC50” value came out at 134.53 ± 0.19 µg/mL. Moreover, the “DPPH IC50” value in data set [15] came to 36.35 ± 0.24 µg/mL.
